The text below walks through data of PubChem BioAssay AID2060497 (Molecular Pharmacology Branch, DTP, NCI, 2025).

The structures appear in SMILES notation. “And” between values parts separate entries of the source, which are not always exact repeats. Equal entries are not always repeated. Some results are limits rather than exact numbers.

One may read the IC50 as the concentration that inhibits the measured activity by half. The viability, T/C is the ratio of treated to control.

The experiment has as its system 317291-083-R-J1-PDC complex spheroids, viability. The experiment can be described thus: Anticancer human tumor 317291-083-R-J1-PDC patient-derived soft tissue sarcoma cell line growth inhibition [GQUAD]. The following applies: for viability, T/C: stronger effect = lower value. An excerpt:
DNA G-quadruplex Stabilizer Agents in Combinations in Complex Spheroids
A high-throughput screen of multi-cell type tumor spheroids was designed to identify active combinations of DNA G-quadruplex stabilizer agents and targeted small molecules. Complex spheroids include a stromal component modeled by human endothelial cells (HUVEC) and fibroblasts modeled by human mesenchymal stem cells (MSCs). The concentration ranges selected for each drug and investigational agent were based upon clinically achievable concentrations if the clinical Cmax of the agent was known.
Compounds. The drugs and investigational agents: pidnarulex (CX-5461; NSC782164), APTO-253 (NSC789042), BRACO-19 (NSC847499), peposertib (NSC802822), ceralasertib (NSC780249), elimusertib (NSC800525), camonsertib (NSC841442), AZD-1390 (NSC803789), olaparib (NSC753686), talazoparib (NSC767125), ART-558 (NSC835418), sotorasib (NSC818433), MRTX-1133 (NSC836407), SN-38 (NSC673596), topotecan (NSC609699), etoposide (NSC141540), doxorubicin (NSC123127), gemcitabine (NSC613327), 5-fluorouracil (NSC19893), paclitaxel (NSC125973), vemurafenib (NSC761431), panobinostat (NSC761190), R-306465 (JNJ-16241199; NSC773264), adavosertib (NSC754352), TP-3654 (NSC805149), carboplatin (NSC241240), KSQ-4279 (NSC840948), and staurosporine (NSC755774) were obtained from the National Cancer Institute (NCI) Developmental Therapeutics Program Chemical Repository (34). The FDA-approved anticancer drug set is available from the NCI Developmental Therapeutics Program. […] The stock solutions were prepared in dimethyl sulfoxide (DMSO, Sigma-Aldrich, St. Louis, MO, cat. D2650) at 800-fold the tested concentration and stored at -70 degrees C prior to their use. All drugs and investigational agents were tested over a range starting from a high concentration at or near the clinical Cmax and decreasing in half-log increments. If the clinical Cmax for an agent had not been determined, the highest concentration tested was 10 microM.
2.3 Cell Culture. All cells were maintained in an incubator at 37 degrees C and 5% CO2 with 95% humidity. The PDC lines were cultured according to standard operating procedures established by the NCI PDMR. All PDCs were thawed and cultured in Matrigel-coated flasks prepared with a working solution of 1X Ham's F-12 nutrient mix, without supplementation (Invitrogen, cat. 11765054), 100 U/mL penicillin-streptomycin (Invitrogen, cat. 15140122), and 2.5% Matrigel (Corning Inc., cat. 354248) for the first three passages. The 857933-349-R-J2-PDC line was cultured in 6C/Colon 1B media, which includes advanced DMEM/F-12 (Thermo Fisher Scientific, cat. 12634028), 10 mM HEPES (Thermo Fisher Scientific, cat. 15630080), 1X GlutaMAX supplement (Thermo Fisher Scientific, cat. 35050061), 0.1 mg/mL primocin (InvivoGen, cat. ant-pm-2), 10% defined fetal bovine serum, heat inactivated (HyClone Laboratories Inc., cat. SH30070.03HI), 50% L-WRN conditioned media (ATCC, cat. CRL-3276), 1.25 mM N-Acetyl-L-cysteine (Sigma-Aldrich, cat. A9165), 10 mM nicotinamide (Sigma-Aldrich, cat. N0636), 1X B-27 supplement (Thermo Fisher Scientific, cat. 17504044), 1X N-2 supplement (Thermo Fisher Scientific, cat. 17502048), 10 microM Y-27632 dihydrochloride (Tocris Bioscience, cat. 1254), and 50 ng/mL human EGF recombinant protein (Thermo Fisher Scientific, cat. PHG0311). The 485176-168-R4-J1-PDC line was cultured in Panc media, which includes all 6C/Colon 1B media components plus 100 ng/mL human FGF-10 (Thermo Fisher Scientific, cat. 100-26), 500 nM SB-431542 (Selleckchem, cat. S1067), and gastrin (Tocris, cat. 3006).
[…]

Setting [1] is: curve of first compound, second compound 0.0316 µM.
The mark [2] stands for this setting: curve of first compound, second compound 0.1 µM.
Setting [3] is: curve of first compound, second compound 0.316 µM.
[4] abbreviates: curve of first compound, second compound 1 µM.
Setting [5] is: curve of first compound, second compound 3.16 µM.
Where [6] appears, read: curve of first compound, second compound 10 µM.
Setting [7] is: second compound 0.0316 µM, first compound 0.0316 µM.
Setting [8] is: second compound 0.0316 µM, first compound 0.1 µM.
Where [9] appears, read: second compound 0.0316 µM, first compound 0.316 µM.
Where [10] appears, read: second compound 0.0316 µM, first compound 1 µM.
The mark [11] stands for this setting: second compound 0.0316 µM, first compound 3.16 µM.
[12] abbreviates: second compound 0.0316 µM, first compound 10 µM.
[13] abbreviates: second compound 0.1 µM, first compound 0.0316 µM.
The mark [14] stands for this setting: second compound 0.1 µM, first compound 0.1 µM.
Setting [15] is: second compound 0.1 µM, first compound 0.316 µM.
Where [16] appears, read: second compound 0.1 µM, first compound 1 µM.
The mark [17] stands for this setting: second compound 0.1 µM, first compound 3.16 µM.
[18] abbreviates: second compound 0.1 µM, first compound 10 µM.
The mark [19] stands for this setting: second compound 0.316 µM, first compound 0.0316 µM.
Where [20] appears, read: second compound 0.316 µM, first compound 0.1 µM.
[21] abbreviates: second compound 0.316 µM, first compound 0.316 µM.
Where [22] appears, read: second compound 0.316 µM, first compound 1 µM.
Where [23] appears, read: second compound 0.316 µM, first compound 3.16 µM.
Setting [24] is: second compound 0.316 µM, first compound 10 µM.
Setting [25] is: second compound 1 µM, first compound 0.0316 µM.
Setting [26] is: second compound 1 µM, first compound 0.1 µM.
The mark [27] stands for this setting: second compound 1 µM, first compound 0.316 µM.
Where [28] appears, read: second compound 1 µM, first compound 1 µM.
The mark [29] stands for this setting: second compound 1 µM, first compound 3.16 µM.
The mark [30] stands for this setting: second compound 1 µM, first compound 10 µM.
The mark [31] stands for this setting: second compound 3.16 µM, first compound 0.0316 µM.
[32] abbreviates: second compound 3.16 µM, first compound 0.1 µM.
Where [33] appears, read: second compound 3.16 µM, first compound 0.316 µM.
Setting [34] is: second compound 3.16 µM, first compound 1 µM.
Where [35] appears, read: second compound 3.16 µM, first compound 3.16 µM.
[36] abbreviates: second compound 3.16 µM, first compound 10 µM.
[37] abbreviates: second compound 10 µM, first compound 0.0316 µM.
Setting [38] is: second compound 10 µM, first compound 0.1 µM.
The mark [39] stands for this setting: second compound 10 µM, first compound 0.316 µM.
Setting [40] is: second compound 10 µM, first compound 1 µM.
[41] abbreviates: second compound 10 µM, first compound 3.16 µM.
The mark [42] stands for this setting: second compound 10 µM, first compound 10 µM.
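Also: spheroids exposed to compounds for one week before readout.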
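For viability, T/C in this document: percent viability relative to DMSO vehicle wells taken as 100%.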

Regarding `CC1COCCN1c1cc(-c2ccnn2C)c2ccnc(-c3ccn[nH]3)c2n1` (centres undefined) + Cc1cnc(CNC(=O)c2c(=O)c3ccc(N4CCCN(C)CC4)nc3n3c2sc2ccccc23)cn1, the IC50 is, setting by setting: under setting [1], below 31.6 nM; under setting [2], 39.5 nM; under setting [3], below 31.6 nM; under setting [4], below 31.6 nM; under setting [5], below 31.6 nM; under setting [6], below 31.6 nM. For the same compound, the viability, T/C under setting [7] is 49.6%; the viability, T/C under setting [8] is 19.1%; the viability, T/C under setting [9] was 13%; the viability, T/C under setting [10] is 10.9%; the viability, T/C under setting [11] is 23.9%; the viability, T/C under setting [12] was 12.7%. For the same compound, the viability, T/C is, setting by setting: under setting [13], 59%; under setting [14], 12.5%; under setting [15], 9.96%; under setting [16], 15.6%; under setting [17], 11.6%; under setting [18], 11.4%. Also, the viability, T/C was 35.6% under setting [19]; 14.6% under setting [20]; 12.3% under setting [21]; 11% under setting [22]; 13.2% under setting [23]; 16.6% under setting [24]. The viability, T/C runs as follows: under setting [25], 25.1%; under setting [26], 25.1%; under setting [27], 11.3%; under setting [28], 9.59%; under setting [29], 20.1%; under setting [30], 11.5%. Further, the viability, T/C under setting [31] was 11.3%; the viability, T/C under setting [32] was 8.19%; the viability, T/C under setting [33] was 9.69%; the viability, T/C under setting [34] was 12.1%; the viability, T/C under setting [35] is 17.1%; the viability, T/C under setting [36] is 11.5%. Moreover, the viability, T/C by setting is: under setting [37], 11.8%; under setting [38], 11.6%; under setting [39], 13.7%; under setting [40], 8.98%; under setting [41], 11.4%; under setting [42], 18.6%.

Take `CC1COCCN1c1cc(C2(S(C)(=N)=O)CC2)nc(-c2ccnc3[nH]ccc23)n1` (centres undefined): the viability, T/C by setting is: (compound 0.0316 µM) 88.1% and 103% and 100%; (compound 0.1 µM) 104% and 90.7% and 106%; (compound 0.316 µM) 91.8% and 90.3% and 101%; (compound 1 µM) 50.2% and 61.5% and 87%; (compound 3.16 µM) 23.9% and 23.1% and 24.4%; (compound 10 µM) 13.9% and 18.3% and 13.1%. For the setting “curve of compound”, the half-maximal inhibitory concentration (IC50) is 1050 nM and 1400 nM and 1980 nM.

On to `Cc1cccc(N(C)C(=O)C2C(O)CCN2c2nc(C)cc(C(F)(F)F)c2C#N)c1` (centres undefined), for which the viability, T/C reads like this: (compound 0.0316 µM) 98.9% and 109% and 103%; (compound 0.1 µM) 92.7% and 102% and 96.2%; (compound 0.316 µM) 91.3% and 123% and 98.8%; (compound 1 µM) 106% and 90.7% and 99.7%; (compound 3.16 µM) 105% and 86.5% and 93.1%; (compound 10 µM) 81.7% and 77.5% and 81.6%. In addition, the IC50 (curve of compound) is above 10000 nM.

For the compound `O=C(NO)c1cnc(N2CCN(S(=O)(=O)c3ccc4ccccc4c3)CC2)nc1` + CN(C)c1ccc(Nc2c3ccc(NC(=O)CCN4CCCC4)cc3nc3cc(NC(=O)CCN4CCCC4)ccc23)cc1, the concentration for half-maximal inhibition (IC50) is 120 nM under setting [1]; 134 nM under setting [2]; 78.9 nM under setting [3]; below 31.6 nM under setting [4]; below 31.6 nM under setting [5]; below 31.6 nM under setting [6]. Further, the viability, T/C runs as follows: under setting [7], 102%; under setting [8], 58.3%; under setting [9], 5.38%; under setting [10], 0.53%; under setting [11], 0.02%; under setting [12], 0.56%. Besides, the viability, T/C runs as follows: under setting [13], 97.1%; under setting [14], 64.3%; under setting [15], 7.56%; under setting [16], 0.08%; under setting [17], 0.71%; under setting [18], 0.06%. In addition, the viability, T/C under setting [19] was 90.5%; the viability, T/C under setting [20] was 39.5%; the viability, T/C under setting [21] was 5.83%; the viability, T/C under setting [22] was 0.06%; the viability, T/C under setting [23] was 0.09%; the viability, T/C under setting [24] is 0.1%. In addition, the viability, T/C was 38.2% under setting [25]; 18.5% under setting [26]; 1.87% under setting [27]; 0.1% under setting [28]; 0.06% under setting [29]; 0.08% under setting [30]. Moreover, the viability, T/C was 10.9% under setting [31]; 1.33% under setting [32]; 0.19% under setting [33]; 0.07% under setting [34]; 0.12% under setting [35]; 0.09% under setting [36]. Moreover, the viability, T/C is, setting by setting: under setting [37], 1.1%; under setting [38], 0.76%; under setting [39], 0.24%; under setting [40], 0.36%; under setting [41], 0.28%; under setting [42], 0.21%.

`Nc1ccn(C2OC(CO)C(O)C2(F)F)c(=O)n1` (centres undefined): the viability, T/C reads like this: (compound 0.0316 µM) 55.7% and 53.6% and 61.2%; (compound 0.1 µM) 16.2% and 24.2% and 38%; (compound 0.316 µM) 16.1% and 12.7% and 9.59%; (compound 1 µM) 13.7% and 10.9% and 8.17%; (compound 3.16 µM) 10.1% and 14.3% and 9.39%; (compound 10 µM) 9.89% and 13.5% and 8.25%. For the same compound, where the note is “curve of compound”, the IC50 was 37.3 nM and 36.3 nM and 55.1 nM.

With `O=c1[nH]cc(F)c(=O)[nH]1`, the viability, T/C was 102% and 111% and 94.4% (compound 0.0316 µM); 112% and 101% and 100% (compound 0.1 µM); 95.9% and 101% and 111% (compound 0.316 µM); 59.7% and 96.8% and 66.8% (compound 1 µM); 35% and 34% and 49.6% (compound 3.16 µM); 36.3% and 23.9% and 38.4% (compound 10 µM). In addition, the IC50 (curve of compound) was 1600 nM and 2360 nM and 2340 nM.

For the compound `COc1ccc([C@@H](O)c2cc(-c3ncnc4cc(N5CCOCC5)ccc34)c(F)cc2Cl)nn1`, the viability, T/C (compound 0.0316 µM) was 95.9% and 104% and 114%; the viability, T/C (compound 0.1 µM) is 97.8% and 87.1% and 92.8%; the viability, T/C (compound 0.316 µM) is 103% (2×) and 99.2%; the viability, T/C (compound 1 µM) was 72.4% and 93.8% and 95%; the viability, T/C (compound 3.16 µM) is 74.5% and 61.3% and 76.2%; the viability, T/C (compound 10 µM) is 42.8% and 34.4% and 49.6%. Moreover, the IC50 (curve of compound) was 7570 nM and 5130 nM and > 10000 nM.
